# Results published in US20050265999A1, “Modulation of 5-HT2 receptors as a treatment for cardiovascular diseases” (Myogen, Inc., priority 2003, published 2005).
# How the values were obtained:
# [1] = tested on: HDAC5; test: HDAC localization assay, GFP-HDAC5 in NRVM; type: cell-based, rat
# Method: NRVM culture. For preparations of neonatal rat ventricular myocytes (NRVMs), hearts were removed from 10-20 newborn (1-2 days old) Sprague-Dawley rats. Isolated ventricles were pooled, minced and dispersed by three 20-min incubations at 37° C. in Ads buffer (116 mM NaCl, 20 mM HEPES, 10 mM NaH2PO4, 5.5 mM glucose, 5 mM KCl, 0.8 mM MgSO4, pH 7.4) containing collagenase Type II (65 units/ml, Worthington) and pancreatin (0.6 mg/ml, GibcoBRL). Dispersed cells were applied to a discontinuous gradient of 40.5% and 58.5% (v/v) Percoll (Amersham Biosciences), centrifuged, and myocytes collected from the interface layer. Myocyte preparations were pre-plated in Dulbecco's modified Eagle's medium (DMEM, Cellgro), supplemented with 10% (v/v) fetal bovine serum (FBS, HyClone), 4 mM L-glutamine and 1% penicillin/streptomycin for 1 hour at 37° C. to reduce fibroblast contamination, then plated at a density of 2.5×10^5 cells per well on 6-well tissue culture plates (or 10,000 cells/well on 96-well tissue culture plates) coated with a 0.2% (w/v) gelatin solution. After 24 hours in culture, myocyte preparations were transferred to serum-free maintenance medium (DMEM supplemented with 0.1% (v/v) Nutridoma (Roche), L-glutamine and penicillin/streptomycin). Where indicated, NRVM were treated with test compounds for a period of 48 h. For immunofluorescence applications, NRVM cultures were fixed, incubated with primary antibodies against alpha skeletal actin and atrial natriuretic factor, then incubated with rhodamine- or flurorescein-conjugated secondary antibodies. For HDAC localization assays, NRVM were plated to clear bottomed 96-well plates and infected overnight with recombinant adenovirus encoding HDAC5 fused to green fluorescent protein (multiplicity of infection=50). The next day, medium was replaced with serum-free maintenance medium for 4 hours, and test compounds added. After two hours, NRVM were fixed and imaged by fluorescent microscopy.
# [2] = tested on: neonatal rat ventricular myocytes (NRVM); test: Cytotoxicity by adenylate kinase (AK) release from NRVM; type: cell-based
# Method: (§1) Hypertrophy and toxicity assays. Primary hypertrophy endpoints for NRVM included quantitation of: ANF secretion, total cellular protein and cell volume. ANF in media supernatants was quantitated by competitive ELISA using a monoclonal anti-ANF antibody (Biodesign) and a biotinylated ANF peptide (Phoenix Peptide). Total cellular protein was quantitated by standard Coomassie dye-binding assay; cells were lysed in protein assay reagent (BioRad) and absorbance at A595 was measured after 1 hour. For cell volume measurements, NRVM cultured in 6-well dishes were harvested by treatment with trypsin (Cellgro). After recovery by centrifugation, cell pellets were washed in PBS, resuspended in 10 ml IsoFlow electrolyte solution (Beckman-Coulter) and analyzed with a Z2 Coulter Particle Counter and Size Analyzer (Beckman-Coulter). Cytotoxicity was quantitated by measuring release of adenylate kinase (AK) from cultured NRVM into culture medium (ToxiLight kit, Cambrex).
# [3] = target: T1, 5-HT2C (Homo sapiens, UniProt P28335); test: Radioligand receptor binding assay; conditions: 10 μM compound, n=2
# T1 sequence (P28335 33-458): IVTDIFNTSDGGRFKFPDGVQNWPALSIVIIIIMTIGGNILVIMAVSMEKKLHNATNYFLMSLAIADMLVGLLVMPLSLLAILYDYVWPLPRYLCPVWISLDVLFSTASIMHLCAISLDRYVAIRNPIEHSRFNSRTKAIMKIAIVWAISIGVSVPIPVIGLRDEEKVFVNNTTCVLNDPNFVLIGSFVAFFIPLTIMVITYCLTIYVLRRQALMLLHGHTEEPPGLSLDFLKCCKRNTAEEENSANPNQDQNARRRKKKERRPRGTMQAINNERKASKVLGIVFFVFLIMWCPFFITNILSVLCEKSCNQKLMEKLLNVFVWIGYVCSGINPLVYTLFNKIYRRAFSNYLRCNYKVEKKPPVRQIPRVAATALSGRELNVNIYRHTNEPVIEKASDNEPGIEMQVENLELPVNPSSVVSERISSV
# [4] = target: T2, 5-HT2B (Homo sapiens, UniProt P41595); test: Radioligand receptor binding assay (MDS Pharma); conditions: 10 μM compound, n=2
# T2 construct: purchased MDS Pharma services 271700
# Method: (§2) Receptor binding assays. Receptor binding assays were performed by MDS Pharma services. Assays included: Adenosine A1 (cat# 200510), Adenosine A2A (cat# 200610), Adenosine A3 (cat# 200720), Adrenergic alpha 1 (cat# 203500), Imidazoline 12 central (cat# 241000), Imidazoline I2 peripheral (cat# 241100), Inositol triphosphate (cat# 242500), Phorbol Ester (cat# 264500), 5-HT 2B (cat# 271700), and 5-HT 4 (cat# 272000).
# (§3) • Summary of radioligand binding assays for 11 receptors. Data represent % inhibition of ligand binding in the presence of 10 μM 18264 (n=2).
# (§4) • Summary of radioligand binding assays for three receptors. Data represent % inhibition of ligand binding in the presence of 10 μM 20068 (n=2).
# [5] = tested on: neonatal rat ventricular myocytes (NRVM); test: ANF secretion by competitive ELISA in NRVM; type: cell-based; conditions: NRVM stimulated with 18264 (1 μM), 48 h; antagonist up to 3 μM
# Method: (§5) NRVM culture. For preparations of neonatal rat ventricular myocytes (NRVMs), hearts were removed from 10-20 newborn (1-2 days old) Sprague-Dawley rats. Isolated ventricles were pooled, minced and dispersed by three 20-min incubations at 37° C. in Ads buffer (116 mM NaCl, 20 mM HEPES, 10 mM NaH2PO4, 5.5 mM glucose, 5 mM KCl, 0.8 mM MgSO4, pH 7.4) containing collagenase Type II (65 units/ml, Worthington) and pancreatin (0.6 mg/ml, GibcoBRL). Dispersed cells were applied to a discontinuous gradient of 40.5% and 58.5% (v/v) Percoll (Amersham Biosciences), centrifuged, and myocytes collected from the interface layer. Myocyte preparations were pre-plated in Dulbecco's modified Eagle's medium (DMEM, Cellgro), supplemented with 10% (v/v) fetal bovine serum (FBS, HyClone), 4 mM L-glutamine and 1% penicillin/streptomycin for 1 hour at 37° C. to reduce fibroblast contamination, then plated at a density of 2.5×10^5 cells per well on 6-well tissue culture plates (or 10,000 cells/well on 96-well tissue culture plates) coated with a 0.2% (w/v) gelatin solution. […]
# as §1, with “For cell volume measurements, NRVM cultured in 6-well dishes were harvested by treatment with trypsin (Cellgro).” left out
# [6] = tested on: neonatal rat ventricular myocytes (NRVM); test: Total cellular protein (Coomassie dye-binding) in NRVM; type: cell-based; conditions: PE-stimulated (20 μM) NRVM, 0.1-3 μM compound, 48 hours
# Method: NRVM culture. For preparations of neonatal rat ventricular myocytes (NRVMs), hearts were removed from 10-20 newborn (1-2 days old) Sprague-Dawley rats. Isolated ventricles were pooled, minced and dispersed by three 20-min incubations at 37° C. in Ads buffer (116 mM NaCl, 20 mM HEPES, 10 mM NaH2PO4, 5.5 mM glucose, 5 mM KCl, 0.8 mM MgSO4, pH 7.4) containing collagenase Type II (65 units/ml, Worthington) and pancreatin (0.6 mg/ml, GibcoBRL). Dispersed cells were applied to a discontinuous gradient of 40.5% and 58.5% (v/v) Percoll (Amersham Biosciences), centrifuged, and myocytes collected from the interface layer. […]
# as §1, with “For cell volume measurements, NRVM cultured in 6-well dishes were harvested by treatment with trypsin (Cellgro).” left out, “Cytotoxicity was quantitated by measuring release of adenylate kinase (AK) from cultured NRVM into culture medium (ToxiLight kit, Cambrex).” left out
# [7] = tested on: 5-HT1; test: Radioligand receptor binding assay; conditions: 10 μM compound, n=2
# Method: as §2, §3, §4
# [8] = tested on: 28 kDa calcineurin-regulated MCIP1 protein; test: Western blot of MCIP1 protein in NRVM; type: cell-based, rat; conditions: NRVM stimulated with 18264 (1 μM), 48 h; CsA 500 nM; ketanserin, cyproheptadine 0.3 and 3 μM; 20068 1 and 3 μM
# Method: as §5
# Western Blots. […] Protein concentrations were determined by the bicinchoninic acid method (BCA Protein Assay, Pierce) with bovine serum albumin as a standard. Equivalent quantities of protein samples ([…]) were denatured in Laemmli buffer and resolved on Tris-glycine SDS-PAGE gels (4-20% acrylamide gradient, Invitrogen). […]
# [9] = tested on: neonatal rat ventricular myocytes (NRVM); test: Cell volume measurement (Coulter counter) of NRVM; type: cell-based; conditions: PE-stimulated (20 μM) NRVM, 48 hours
# Method: as §5
# as §1, with “For cell volume measurements, NRVM cultured in 6-well dishes were harvested by treatment with trypsin (Cellgro).” left out
# T2 sequence (P41595 whole entry): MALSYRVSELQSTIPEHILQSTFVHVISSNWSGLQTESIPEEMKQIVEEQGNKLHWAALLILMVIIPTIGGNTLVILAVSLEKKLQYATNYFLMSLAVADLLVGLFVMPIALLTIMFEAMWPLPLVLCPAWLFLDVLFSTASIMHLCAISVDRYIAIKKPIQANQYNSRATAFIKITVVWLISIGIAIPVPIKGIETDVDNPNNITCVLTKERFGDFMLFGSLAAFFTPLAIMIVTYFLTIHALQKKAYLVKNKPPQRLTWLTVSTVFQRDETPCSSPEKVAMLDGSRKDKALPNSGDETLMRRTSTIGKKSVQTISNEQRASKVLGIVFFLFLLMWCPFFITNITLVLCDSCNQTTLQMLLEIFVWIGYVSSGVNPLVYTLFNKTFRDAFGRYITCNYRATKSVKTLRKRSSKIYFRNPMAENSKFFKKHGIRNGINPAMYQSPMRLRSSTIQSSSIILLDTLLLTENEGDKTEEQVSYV
compound,measurement,setting,value
"Nc1cc(-c2ccccc2)nc2ccccc12 [Compound 20068, 2-Phenyl-quinolin-4-ylamine]",block of 18264-dependent nuclear export of HDAC5,[1]; NRVM pretreated with 20068 (2 μM) one hour before 18264 (1 μM),effective at blocking
same,"cytotoxicity (AK release), in words","[2]; presence or absence of hypertrophic stimuli, up to 3 micromolar, 48 hours",no significant cytotoxicity
same,inhibition at 10 µM,[3],63%
same,inhibition at 10 µM,[4],76%
same,block of 18264-dependent ANF secretion,[5],effective at blocking
same,attenuation of PE-dependent increase in total cellular protein,[6],attenuated
same,% Inhibition of Binding,[7],19%
same,attenuation of 18264-dependent induction of MCIP1 protein expression,[8],blocking 18264-dependent increases in MCIP1 protein in a dose-dependent manner
same,reduction of PE-dependent increase in cardiomyocyte cell volume,[9]; 3 μM compound,49%
same,attenuation of PE-dependent increase in cell volume (in words),[9]; 0.1-3 μM compound,attenuated
"CNC[C@H](O)c1cccc(O)c1 [PE, phenylephrine, reference compound]",nuclear export of HDAC5-GFP,"[1]; NRVM, two hours, 18264 1 μM, PE 20 μM",moves to cytoplasm
"O=C(c1ccc(F)cc1)C1CCN(CCn2c(=O)[nH]c3ccccc3c2=O)CC1 [ketanserin, reference compound]",block of 18264-dependent ANF secretion,[5],able to block
same,attenuation of 18264-dependent induction of MCIP1 protein expression,[8],attenuated
Triton X-100 [reference compound],fold change in AK release versus unstimulated control,"[2]; 0.1% Triton X-100, positive control",approximately 6.5 fold
